{
  "source": "paper PMC4580987",
  "about": "“Catalytic site inhibition of insulin-degrading enzyme by a small molecule induces glucose intolerance in mice” (Nature Communications, 2015)",
  "type_in_all_cases": "biochemical",
  "key": {"recombinant human ECE-1": {"target": "T1, recombinant human ECE-1 (Homo sapiens, UniProt P42892)", "T1 construct": "host or cells: NSO cells", "T1 sequence (P42892 1-770)": "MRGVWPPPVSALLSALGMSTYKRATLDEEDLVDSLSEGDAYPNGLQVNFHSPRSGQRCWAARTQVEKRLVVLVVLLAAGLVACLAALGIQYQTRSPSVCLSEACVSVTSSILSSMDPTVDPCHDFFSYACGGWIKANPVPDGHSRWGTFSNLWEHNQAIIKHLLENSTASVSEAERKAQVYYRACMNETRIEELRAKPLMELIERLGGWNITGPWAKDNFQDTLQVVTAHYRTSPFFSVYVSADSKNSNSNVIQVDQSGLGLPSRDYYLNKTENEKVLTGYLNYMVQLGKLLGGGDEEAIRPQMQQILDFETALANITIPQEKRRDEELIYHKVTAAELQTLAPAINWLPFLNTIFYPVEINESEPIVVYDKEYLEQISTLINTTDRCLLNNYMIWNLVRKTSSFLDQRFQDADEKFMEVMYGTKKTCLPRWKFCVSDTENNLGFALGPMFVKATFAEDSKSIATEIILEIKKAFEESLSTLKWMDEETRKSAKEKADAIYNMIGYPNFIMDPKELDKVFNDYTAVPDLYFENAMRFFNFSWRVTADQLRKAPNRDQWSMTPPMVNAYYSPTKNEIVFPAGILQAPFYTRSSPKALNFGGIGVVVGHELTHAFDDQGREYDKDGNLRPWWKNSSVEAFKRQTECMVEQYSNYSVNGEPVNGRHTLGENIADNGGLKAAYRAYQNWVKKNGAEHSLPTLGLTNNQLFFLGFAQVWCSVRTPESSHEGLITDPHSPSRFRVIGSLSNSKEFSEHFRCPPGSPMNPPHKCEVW", "assay": "Endothelin-converting enzyme inhibition (CEREP)", "conditions": "means of two experiments minimum, s.d.±10%; read-out: Selectivity IC50 hECE"}, "hIDE [1]": {"target": "T2, hIDE (Homo sapiens, UniProt P14735)", "T2 construct": "made in house", "T2 sequence (P14735 1-1019)": "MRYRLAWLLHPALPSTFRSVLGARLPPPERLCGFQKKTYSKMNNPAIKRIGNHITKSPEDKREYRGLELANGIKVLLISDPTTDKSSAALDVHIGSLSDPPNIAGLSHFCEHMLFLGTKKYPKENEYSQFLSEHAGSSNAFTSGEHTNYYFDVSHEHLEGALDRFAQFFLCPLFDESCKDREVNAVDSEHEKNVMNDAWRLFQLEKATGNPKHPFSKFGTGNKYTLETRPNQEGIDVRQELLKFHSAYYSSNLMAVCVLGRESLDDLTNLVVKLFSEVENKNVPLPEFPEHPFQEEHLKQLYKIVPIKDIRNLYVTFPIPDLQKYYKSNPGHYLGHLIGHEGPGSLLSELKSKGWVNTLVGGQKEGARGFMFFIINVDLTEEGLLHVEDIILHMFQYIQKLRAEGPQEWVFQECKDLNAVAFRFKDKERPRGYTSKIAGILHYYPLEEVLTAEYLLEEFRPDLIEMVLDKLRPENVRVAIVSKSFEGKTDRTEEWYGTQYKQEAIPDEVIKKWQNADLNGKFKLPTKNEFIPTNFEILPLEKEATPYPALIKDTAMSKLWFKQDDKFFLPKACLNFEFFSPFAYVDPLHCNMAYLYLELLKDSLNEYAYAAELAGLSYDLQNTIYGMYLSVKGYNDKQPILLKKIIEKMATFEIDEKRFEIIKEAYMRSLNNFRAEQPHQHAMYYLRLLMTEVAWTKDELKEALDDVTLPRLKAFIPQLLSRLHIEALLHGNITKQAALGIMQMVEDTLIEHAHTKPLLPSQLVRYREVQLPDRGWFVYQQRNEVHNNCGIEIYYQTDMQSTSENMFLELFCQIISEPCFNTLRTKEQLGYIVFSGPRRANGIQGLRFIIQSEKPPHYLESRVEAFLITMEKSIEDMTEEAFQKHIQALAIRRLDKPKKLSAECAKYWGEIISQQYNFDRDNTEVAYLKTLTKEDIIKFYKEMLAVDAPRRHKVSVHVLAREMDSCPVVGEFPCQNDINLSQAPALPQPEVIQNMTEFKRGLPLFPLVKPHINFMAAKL", "assay": "In vitro hIDE inhibition of insulin hydrolysis", "conditions": "substrate native insulin; means of two experiments minimum, s.d.±10%; read-out: Selectivity IC50 hIDE", "description": "The enzymatic activity of hIDE was assayed quantifying the amount of insulin (Actrapid) at the end of the reaction. The quantity of insulin was determined using a Luminex kit (HMHMAG-34K, Millipore). 20 μl of WT IDE in Hepes buffer (50 mM with 100 mM NaCl, pH 7.4) at 1 μg ml^−1 were pre-incubated 10 min at ambient temperature with 20 μl of test compound or vehicle in 96-well microtiter plates (dark, non-binding surface). The reaction was then started by the addition of 40 μl of insulin at 40 nM. The final concentration of hIDE and substrate was 0.25 μg ml^−1 and 20 nM, respectively. Incubations were performed at ambient temperature for 10 min. The reaction was then stopped by addition of 80 μl of 200 mM EDTA. The samples were diluted by a factor of 3, and 15 μl were transferred to 96-well microtiter plates (dark, clear bottom, non-binding surface) containing 15 μl of assay buffer (from Luminex Kit). Fifteen microlitre of insulin magnetic beads were added. Incubation was performed during 16–18 h at 4 °C under agitation. Wells were washed three times and 30 μl of hormone panel antibodies were added. The samples were incubated 30 min at ambient temperature under agitation. 30 μl of strepdavidin-phycoerythrin were added. Incubation was performed 30 min at ambient temperature under agitation. Wells were washed three times and 80 μl of drive fluid were added. The plate was then read with the MagPix apparatus. Data analysis was performed using Xlfit v 5.0 and GraphPad Prism v 4.0. Nonlinear curve fitting and statistical analysis was done using equation 1: […]\nwhere A is minimum value of y; B is range of y; C is the IC50 value and D is slope factor."}, "hIDE [2]": {"target": "T2, hIDE", "assay": "In vitro hIDE inhibition of Aβ16–23-based substrate hydrolysis", "description": "In vitro IDE activity was measured with a quenched substrate […]. Human recombinant IDE was cloned and purified as previously described. […] All measurements were carried out as 8-point dose response curves and reported as the average of at least three independent measurements. […] Data analysis was performed using Xlfit v 5.0 and GraphPad Prism v 4.0. Nonlinear curve fitting and statistical analysis was done using built-in functions."}},
  "data": [
    {"smiles": "O=C(C[C@@H](Cc1ccc2ccccc2c1)n1cc(CNC(=O)c2ccc(F)cc2)nn1)NO", "note": "[Compound 1]", "values": [
      {"measurement": "IC50", "setting": "recombinant human ECE-1", "value": 6.5, "unit": "µM"},
      {"measurement": "IC50", "setting": "hIDE [1]", "value": 0.06, "unit": "µM"},
      {"measurement": "IC50", "setting": "hIDE [2]", "value": 0.3, "unit": "µM"}
    ]}
  ]
}
